# Results reported in patent publication US20240254129A1, “HETEROCYCLIC COMPOUNDS AND USES THEREOF” (Kumquat Biosciences Inc., priority 2021, published 2024).
# Read-outs that look alike come from different tables or passages of the source.
# Columns and labels:
# [1] = target: GST-tagged K-Ras mutant / His-tagged hSOS1 (Homo sapiens, UniProt P01116); assay: HTRF assay, K-Ras mutant / SOS1 interaction; type: binding; details: read-out: IC50 against mutant Kras
# In short: (§1)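 Inhibition of wildtype or mutant K-Ras binding to hSOS1 is measured by FRET between antibody-bound Eu donor and XL665 acceptor. Protein levels are matched to the IC50 range under study. The 665/620 nm signal after ≥10 min yields IC50.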
# [2] = target: T1, wildtype Kras / hSOS1 (Homo sapiens, UniProt P01116); assay: HTRF assay, wildtype Kras / SOS1 interaction; type: binding; details: read-out: IC50 against wildtype Kras
# T1 construct: made in house; host or cells: E. coli BL21 (DE3)
# T1 sequence (P01116 1-188 isoform P01116-2): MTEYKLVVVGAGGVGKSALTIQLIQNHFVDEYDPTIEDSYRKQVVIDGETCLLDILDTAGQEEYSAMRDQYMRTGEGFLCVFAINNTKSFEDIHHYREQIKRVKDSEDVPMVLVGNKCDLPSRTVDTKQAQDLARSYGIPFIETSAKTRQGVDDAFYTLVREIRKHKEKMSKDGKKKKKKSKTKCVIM
# In short: as §1
# [3] = compound nos. 102-196, general methodology of example 5
# [4] = compound nos. 201-213, general methodology of example 5
# GST-tagged K-Ras mutant / His-tagged hSOS1, sequence (P01116 whole entry G12D, form open): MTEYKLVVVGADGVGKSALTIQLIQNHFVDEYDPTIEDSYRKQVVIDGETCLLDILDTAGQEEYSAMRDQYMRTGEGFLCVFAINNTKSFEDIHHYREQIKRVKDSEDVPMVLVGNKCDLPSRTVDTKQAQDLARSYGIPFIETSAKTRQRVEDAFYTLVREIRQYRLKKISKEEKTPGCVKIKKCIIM
IC50 ([1]; compound nos. 401-703),IC50 ([2]; compound nos. 401-703),SMILES,further results
> 0.5 µM,< 0.5 µM,"Fc1c(-c2cccc3c2C2CC2C3)c(Cl)cc2c(N3CC4CCC(C3)N4)nc(OC[C@@]34CCCN3C[C@H](F)C4)nc12 (stereo partly drawn) [Compound 422, 4-(3,8-diazabicyclo[3.2.1]-octan-3-yl)-6-chloro-8-fluoro-2-(((2R,7aS)-2-fluoro-tetrahydro-1H-pyrrolizin-7a(5H)-yl)methoxy)-7-(1,1a,6,6a-tetrahydrocyclo-propa[a]inden-2-yl)quin-azoline]",–
< 0.5 µM,> 0.5 µM,"CC(C)CCN1[C@@H]2CC[C@H]1CN(c1nc(OCC34CCCN3CCC4)nc3c(F)c(-c4ccc(F)c5sc(N)nc45)c(Cl)cc13)C2 [Compound 682, 4-(6-chloro-8-fluoro-4-((1R,5S)-8-isopentyl-3,8-diazabicyclo[3.2.1]octan-3-yl)-2-((tetrahydro-1H-pyr-rolizin-7a(5H)-yl)methoxy)-quinazolin-7-yl)-7-fluoro-benzo[d]thiazol-2-amine]",–
–,–,"CN1CCC[C@H]1COc1nc(N2CCC3CNCC3C2)c2cc(Cl)c(-c3cccc4sc(N)nc34)c(F)c2n1 (stereo partly drawn) [Compound 143, 4-(6-chloro-8-fluoro-2-(((S)-1-methylpyrrolidin-2-yl)-methoxy)-4-(octahydro-5H-pyrrolo[3,4-c]pyridin-5-yl)-quinazolin-7-yl)benzo[d]-thiazol-2-amine]","IC50 [1, 3]: > 0.5 µM; IC50 [2, 3]: > 0.5 µM"
–,–,"CN1CCC[C@H]1COc1nc(N2C3CCNCC2CC3)c2cc(Cl)c(-c3cccc4sc(N)nc34)c(F)c2n1 (stereo partly drawn) [Compound 180, 4-(4-(3,9-diazabicyclo-[4.2.1]nonan-9-yl)-6-chloro-8-fluoro-2-(((S)-1-methyl-pyrrolidin-2-yl)methoxy)-quinazolin-7-yl)benzo[d]-thiazol-2-amine]","IC50 [1, 3]: < 0.5 µM; IC50 [2, 3]: > 0.5 µM"
–,–,"Nc1nc2c(-c3c(Cl)cc4c(N5CCOCC(F)(F)C5)nc(OCC56CCCN5CCC6)nc4c3F)cccc2s1 [Compound 114, 4-(6-chloro-4-(6,6-difluoro-1,4-oxazepan-4-yl)-8-fluoro-2-((tetrahydro-1H-pyrrolizin-7a(5H)-yl)methoxy)quin-azolin-7-yl)benzo[d]thiazol-2-amine]","IC50 [1, 3]: < 0.5 µM; IC50 [2, 3]: < 0.5 µM"
> 0.5 µM,> 0.5 µM,"N#Cc1ccc2ccccc2c1-c1ccc2c(N3CC4CCC(C3)N4)nc(OC[C@@]34CCCN3C[C@H](F)C4)nc2c1F [Compound 691, 1-(4-(3,8-diazabicyclo-[3.2.1]octan-3-yl)-8-fluoro-2-(((2R,7aS)-2-fluorotetra-hydro-1H-pyrrolizin-7a(5H)-yl)methoxy)quinazolin-7-yl)-2-naphthonitrile]",–
> 0.5 µM,> 0.5 µM,"Oc1cc(-c2ccc3c(N4CC5CCC(C4)N5)nc(OC[C@]45CCCN4C[C@@H](F)C5)nc3c2OCC(F)(F)F)c2ccccc2c1 [Compound 608, 4-(4-(3,8-diazabicyclo-[3.2.1]octan-3-yl)-2-(((2S,7aR)-2-fluorotetra-hydro-1H-pyrrolizin-7a(5H)-yl)methoxy)-8-(2,2,2-trifluoroethoxy)-quinazolin-7-yl)naph-thalen-2-ol]",–
> 0.5 µM,> 0.5 µM,"Cc1ccnc(C(C)C)c1-n1c(=O)nc(N2CC3CCC(C2)N3)c2cc(F)c(-c3c(O)cccc3F)nc21 [Compound 687, 4-(3,8-diazabicyclo[3.2.1]-octan-3-yl)-6-fluoro-7-(2-fluoro-6-hydroxyphenyl)-1-(2-isopropyl-4-methylpyr-idin-3-yl)pyrido[2,3-d]pyr-imidin-2(1H)-one]",–
< 0.5 µM,> 0.5 µM,"CN1CCC[C@H]1COc1nc(N2CC3CCC(C2)N3)c2cc(Cl)c(-c3cccc4sc(N)nc34)c(F)c2n1 [Compound 565, 4-(4-(3,8-diazabicyclo-[3.2.1]octan-3-yl)-6-chloro-8-fluoro-2-(((S)-1-methyl-pyrrolidin-2-yl)methoxy)-quinazolin-7-yl)benzo[d]-thiazol-2-amine]",–
> 0.5 µM,> 0.5 µM,"Nc1cc2cccc(-c3c(Cl)cc4c(N5CC6CCC(C5)N6)nc(OCC56CCCN5CCC6)nc4c3F)c2cn1 [Compound 618, 8-(4-(3,8-diazabicyclo-[3.2.1]octan-3-yl)-6-chloro-8-fluoro-2-((tetrahydro-1H-pyrrolizin-7a(5H)-yl)meth-oxy)quinazolin-7-yl)iso-quinolin-3-amine]",–
< 0.5 µM,> 0.5 µM,"N#CC1COCCN(c2nc(OCC34CCCN3C[C@H](F)C4)nc3c(F)c(-c4ccc(F)c5sc(N)nc45)c(Cl)cc23)C1 (stereo partly drawn) [Compound 513, 4-(7-(2-amino-7-fluoroben-zo[d]thiazol-4-yl)-6-chloro-8-fluoro-2-(((2R)-2-fluoro-tetrahydro-1H-pyrrolizin-7a(5H)-yl)methoxy)quin-azolin-4-yl)-1,4-oxazepane-6-carbonitrile]",–
> 0.5 µM,> 0.5 µM,"CN(C)C1CN(c2nc(N3CC4CCC(C3)N4)c3cc(Cl)c(-c4ccc(F)c5sc(N)nc45)c(F)c3n2)C1 [Compound 503, 4-(4-(3,8-diazabicyclo-[3.2.1]octan-3-yl)-6-chloro-2-(3-(dimethyl-amino)azetidin-1-yl)-8-fluoroquinazolin-7-yl)-7-fluorobenzo[d]thiazol-2-amine]",–
> 0.5 µM,< 0.5 µM,"Cc1ccc(C(N)=O)cc1-c1c(Cl)cc2c(N3CC4CCC(C3)N4)nc(OCC34CCCN3CCC4)nc2c1F [Compound 417, 3-(4-(3,8-diazabicyclo-[3.2.1]octan-3-yl)-6-chloro-8-fluoro-2-((tetrahydro-1H-pyrrolizin-7a(5H)-yl)meth-oxy)quinazolin-7-yl)-4-methylbenzamide]",–
> 0.5 µM,> 0.5 µM,"Cc1ccc2cnn(CC#N)c2c1-c1c(Cl)cc2c(N3CC4CCC(C3)N4)nc(OC[C@@]34CCCN3C[C@H](F)C4)nc2c1F [Compound 549, 2-(7-(4-(3,8-diazabicyclo-[3.2.1]octan-3-yl)-6-chloro-8-fluoro-2-(((2R,7aS)-2-fluorotetrahydro-1H-pyrrol-izin-7a(5H)-yl)methoxy)-quinazolin-7-yl)-6-methyl-1H-indazol-1-yl)acetonitrile]",–
> 0.5 µM,> 0.5 µM,"Nc1nc2c(-c3cc4ncnc(N5CC6CCC(C5)N6)c4cc3Cl)ccc(F)c2s1 [Compound 635, 4-(4-(3,8-diazabicyclo-[3.2.1]octan-3-yl)-6-chloro-quinazolin-7-yl)-7-fluoro-benzo[d]thiazol-2-amine]",–
> 0.5 µM,> 0.5 µM,"Fc1c(-c2cccc3[nH]ncc23)ccc2c(N3CC4CCC(C3)N4)nc(OC[C@@]34CCCN3C[C@H](F)C4)nc12 [Compound 654, 4-(3,8-diazabicyclo[3.2.1]-octan-3-yl)-8-fluoro-2-(((2R,7aS)-2-fluorotetra-hydro-1H-pyrrolizin-7a(5H)-yl)methoxy)-7-(1H-indazol-4-yl)quinazoline]",–
> 0.5 µM,> 0.5 µM,"OC1Cc2ccccc2N(c2ccc3c(N4CCCCCC4)nc(OCC45CCCN4CCC5)nc3c2F)C1 (stereo not shown) [Compound 534, 1-(4-(azepan-1-yl)-8-fluoro-2-((tetrahydro-1H-pyrrol-izin-7a(5H)-yl)methoxy)-quinazolin-7-yl)-1,2,3,4-tetrahydroquinolin-3-ol]",–
–,–,"Nc1nc2c(-c3c(Cl)cc4c(N5C[C@H]6CC[C@@H](C5)N6)nc(OCCCN5CCCC5)nc4c3F)ccc(F)c2s1 [Compound 208, 4-(4-((1R,5S)-3,8-diaza-bicyclo[3.2.1]octan-3-yl)-6-chloro-8-fluoro-2-(3-(pyrrolidin-1-yl)propoxy)-quinazolin-7-yl)-7-fluoro-benzo[d]thiazol-2-amine]","IC50 [1, 4]: < 1.5 µM; IC50 [2, 4]: < 1.5 µM"
> 0.5 µM,> 0.5 µM,"Fc1c(-c2cccc3sccc23)c(Cl)cc2c(N3CC4CCC(C3)N4)nc(OC[C@@]34CCCN3C[C@H](F)C4)nc12 [Compound 579, 7-(benzo[b]thiophen-4-yl)-4-(3,8-diazabicyclo[3.2.1]-octan-3-yl)-6-chloro-8-fluoro-2-(((2R,7aS)-2-fluorotetrahydro-1H-pyrrol-izin-7a(5H)-yl)methoxy)-quinazoline]",–
< 0.5 µM,< 0.5 µM,"CN1CCC[C@H]1COc1nc(N2CCCCC(C(N)=O)C2)c2cc(Cl)c(-c3cccc4sc(N)nc34)c(F)c2n1 (stereo partly drawn) [Compound 455, 1-(7-(2-aminobenzo[d]-thiazol-4-yl)-6-chloro-8-fluoro-2-(((S)-1-methylpyr-rolidin-2-yl)methoxy)quin-zolin-4-yl)azepane-3-carboxamide]",–
< 0.5 µM,> 0.5 µM,"CNCCN1CCCN(c2nc(OCC34CCCN3CCC4)nc3c(F)c(-c4ccc(F)c5sc(N)nc45)c(Cl)cc23)CC1 [Compound 575, 4-(6-chloro-8-fluoro-4-(4-(2-(methylamino)ethyl)-1,4-diazepan-1-yl)-2-((tetra-hydro-1H-pyrrolizin-7a(5H)-yl)methoxy)quinazolin-7-yl)-7-fluorobenzo[d]thiazol-2-amine]",–
> 0.5 µM,< 0.5 µM,"Cc1ncc(Oc2nc(N3CCCCCC3)c3cc(Cl)c(-c4cccc5sc(N)nc45)c(F)c3n2)cn1 [Compound 461, 4-(4-(azepan-1-yl)-6-chloro-8-fluoro-2-((2-methylpyrim-idin-5-yl)oxy)quinazolin-7-yl)benzo[d]thiazol-2-amine]",–
–,–,"CN1CCC[C@H]1COc1nc(N2CCCNCC(F)(F)C2)c2cc(Cl)c(-c3cccc4sc(N)nc34)c(F)c2n1 [Compound 127, 4-(6-chloro-4-(3,3-difluoro-1,5-diazocan-1-yl)-8-fluoro-2-(((S)-1-methylpyrrolidin-2-yl)methoxy)quinazolin-7-yl)benzo[d]thiazol-2-amine]","IC50 [1, 3]: < 0.5 µM; IC50 [2, 3]: < 0.5 µM"
